Results reported in US5679644A, “Methods of treating diseases using triterpenoid acid derivatives” (Glycomed Incorporated, priority 1995, dated 1997).
Values joined by “and” are separate entries in the source; they are usually repeats but may differ in a detail not shown here. Identical values can stand only once. “Also recorded” adds a separate entry of the source.

Legend:
[1] = J. Med. Chem. (1974) 17(2):184-191; cited from earlier work
[2] = test system: E-Selectin; experiment: E-Selectin chimera binding to fixed LS174T colon carcinoma cells; type: cell-based; conditions: for IC50: lowest concentration from serial two-fold dilutions which inhibits by 50% or more relative to control, range, read-out: IC50 of Compound in Assay of E-Selectin Binding To Fixed LS174T Colon Carcinoma Cells (Range); for interference with cancer cell binding to E-selectin (in words): LS174T colon carcinoma cells
Procedure: Experiments were conducted to determine the capacity of the invention compounds to interfere with the binding of cancer cells to E-selectin. The compounds were dissolved in dimethylformamide (DMF) prior to being assayed. […] The mixture was rotated briskly on a rotary platform at room temperature for 30-60 minutes. Particulate matter was then removed by centrifugation, and the soluble fraction was transferred onto 96-well microtiter plates containing glutaraldehyde fixed LS174T colon carcinoma cells. […] Plates were developed in the dark and read at 405 nm. […] DMF (vehicle) typically had no effect. […] For all but 18-beta-glycyrrhetinic acid the compounds had low IC50 values, thus indicating their suitability for the treatment or prevention of certain forms of metastatic cancers.

[3] = biological target: T1, 5-Lipoxygenase (Rattus norvegicus, UniProt P12527); experiment: Inhibition of 5-Lipoxygenase, crude enzyme preparation from rat basophilic leukemia cells (RBL-1); type: biochemical
T1 construct: crude enzyme preparation from rat basophilic leukemia cells (RBL-1); endogenous in cells; host or cells: RBL-1 (rat basophilic leukemia cells)
T1 sequence (P12527 1-673): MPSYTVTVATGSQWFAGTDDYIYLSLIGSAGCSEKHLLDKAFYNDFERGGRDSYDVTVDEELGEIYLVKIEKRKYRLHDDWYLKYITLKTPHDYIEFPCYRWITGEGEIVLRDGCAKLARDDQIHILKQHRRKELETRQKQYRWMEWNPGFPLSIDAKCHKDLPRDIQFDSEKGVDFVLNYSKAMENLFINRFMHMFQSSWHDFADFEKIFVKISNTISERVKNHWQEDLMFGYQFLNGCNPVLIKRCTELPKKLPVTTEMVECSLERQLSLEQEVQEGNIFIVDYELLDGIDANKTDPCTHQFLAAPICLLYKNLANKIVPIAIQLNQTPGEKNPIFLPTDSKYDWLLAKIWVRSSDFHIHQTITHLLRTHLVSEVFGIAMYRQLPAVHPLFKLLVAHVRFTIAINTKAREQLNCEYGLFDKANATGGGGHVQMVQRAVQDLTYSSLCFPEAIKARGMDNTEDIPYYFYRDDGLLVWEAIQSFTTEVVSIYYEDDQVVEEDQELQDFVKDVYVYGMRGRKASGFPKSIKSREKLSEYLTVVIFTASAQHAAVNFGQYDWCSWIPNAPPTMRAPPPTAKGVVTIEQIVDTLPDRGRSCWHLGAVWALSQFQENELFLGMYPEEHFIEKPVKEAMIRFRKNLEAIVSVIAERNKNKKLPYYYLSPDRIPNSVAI
Procedure: Thus, compounds that inhibit 5-lipoxygenase will have significant medical applications that require regulating or lowering leukotriene levels. Thus, the compounds of the instant invention were assayed for their capacity to inhibit 5-lipoxygenase. 5-Lipoxygenase assays were run using a crude enzyme preparation from rat basophilic leukemia cells (RBL-1) ([…]. and Samuelsson, B. Proc. Natl. Acad. Sci. […] W. and […]. Biol. Chem. (1985) 260:11554-11559). Test compounds were pre-incubated with the enzyme for 5 minutes at room temperature and the reaction is initiated by addition of substrate, […]. Following an 8 minute incubation at room temperature, the reaction was terminated by addition of NaOH, and absorbance read at 234 nm to determine levels of 5-HETE. Compounds were screened at 50 μM.

[4] = test system: arachidonic acid-induced ear swelling; experiment: Arachidonic acid (AA) murine skin (ear) inflammation model, topical administration; type: in vivo; conditions: for anti-inflammatory activity (in words): arachidonic acid murine skin inflammation model
Procedure: Using the arachidonic acid (AA), murine skin inflammation model, described by Harris, R. R. et al. (Skin Pharmacol (1990) 3:2940) the anti-inflammatory activity of 1-[3-O-(18-β-Glycyrrhetinic acid)]-2-(α-L-C-methylfucopyranose)-2',3'-propanediol (5) was tested. For comparison, 18-β-glycyrrhetinic acid was also tested. All compounds were dissolved at 100 mg/mL in methanol or chloroform (18-β-glycyrrhetinic acid) except compound (5) which was at 0.80 mg/mL. 10 μL of each compound was applied to the ear. AA was applied alone, or followed immediately with 1-[3-O-(18-β-Glycyrrhetinic acid)]-2-(α-L-C-methylfucopyranose)-2',3'-propanediol (5) or 18-β-glycyrrhetinic acid. 90 minutes later a 6 mm disk of each ear was removed and weighed.

[5] = test system: P-selectin; experiment: P-selectin binding to HL-60 cells; type: cell-based; conditions: HL-60 assay; for IC50: P-selectin 200 ng/ml, read-out: IC50 for interfering with P-selectin binding to HL-60 cells
Procedure: (§1) In addition to E-selectin binding, certain of the invention compounds were tested for their capacity to inhibit P-selectin binding to cancer cells, and to a chemical known to bind to P-selectin, 2,3 sLex. The following materials and procedures were used.
(§2) Compound Preparation. Compound (5) of Example 5, and compound (8) of Example 8 were solubilized in DMF to yield a 100 mM solution.
(§3) P-Selectin Detection Solutions. Goat F(ab')2 anti-human IgG (Fc spec.)biotin and streptavidin-AP were diluted 1:1000 in 1% BSA-TBS with 1 mM Ca. An Elisa assay was utilized to measure P-selectin binding to 2,3 sLex, and P-selectin was added at 300 ng/ml. An Elisa assay was also used to assay for the capacity of the invention compounds to inhibit cancer cell binding to P-selectin. HL-60 cancer cells were used, and P-selectin was added at 200 ng/ml.
(§4) Plate Preparation. 2,3 sLex was coated at 30 pmoles/well to Probind microtiter plates for Elisa. The glycolipid was added at 50 μl/well in 50% MeOH and allowed to evaporate overnight. Elisa plates and HL-60 assay plates were blocked with 5% BSA-TBS Ca^++ for more than an hour at room temperature. The plates were washed with TBS without Ca^++.
Cell Preparation. HL-60 cells were harvested by centrifugation, washed with TBS no Ca^++, counted, and the density adjusted to 2×10^6 /ml in 1% BSA-TBS Ca^++.
(§5) Assay. Briefly, the assays were conducted as follows. Compounds (5) and (8) were added to P-selectin detection solutions at 4, 2, 1, 0.5, 0.25 and 0.125 mM for the HL-60 based assay, and at 2, 1, 0.5, 0.25, 0.125 and 0.063 mM for the assay involving 2,3 sLex. DMF solutions were added directly to 1% BSA/TBS-Ca for dilutions through 0.5 mM. Lower concentrations were made in serial two-fold dilutions in BSA-TBS. These solutions were incubated at room temperature on a rotating platform for 1 hour, centrifuged to pellet particulate matter, and then added in triplicate for 2,3 sLex coated plates, or quadruplicate for HL-60 cells at 50 μl/well. An equal volume of HL-60 cells was added to wells for the cell based assay. The 2,3 sLex coated plates were incubated at 37° C. for 45 minutes, washed 3× with TBS, and 50 μl of substrate added to each well. Plates with HL-60 cells were incubated at 4° C. for 1 hour, the cells pelleted by centrifugation and washed 3× with TBS. For both assays, substrate was added at 75 μl/well. After color developed to an appropriate intensity, 50 μl/well was transferred to another plate for O.D. determination at 405 nm.

[6] = biological target: P-selectin; experiment: Elisa of P-selectin binding to 2,3 sLex; conditions: for IC50: Elisa, P-selectin 300 ng/ml, read-out: IC50 for inhibiting P-selectin binding to 2,3 sLex
Procedure: as §1, §2, §3, §4
as §5, with “Plates with HL-60 cells were incubated at 4° C. for 1 hour, the cells pelleted by centrifugation and washed 3× with TBS. For both assays, substrate was added at 75 μl/well. After color developed to an appropriate intensity, 50 μl/well was transferred to another plate for O.D. determination at 405 nm.” left out

[7] = test system: 5-lipoxygenase; conditions: Sotomatsu et al. 1959; Inoue et al. 1986; cited from earlier work

In the case of `CC1(C)[C@@H](O)CC[C@]2(C)[C@H]3CC=C4[C@@H]5C[C@@](C)(C(=O)O)CC[C@]5(C)CC[C@@]4(C)[C@]3(C)CC[C@@H]12` [11-Deoxoglycyrrhetinic acid], the “aldosterone (DCA)-like activity (in words)” value [1] is given as “does not substantially show the DCA activity of the parent compound”.

Compound `CC1(C)[C@@H](O)CC[C@]2(C)[C@H]3C(=O)C=C4[C@@H]5C[C@@](C)(C(=O)O)CC[C@]5(C)CC[C@@]4(C)[C@]3(C)CC[C@@H]12` [18-β-glycyrrhetinic acid] has an IC50 [2] of 125 to 500 µM, an inhibition at 100 µM [3] of 36% and an inhibition at 1000 µM [3] of 81%.

With `CC(CO[C@H]1CC[C@]2(C)[C@H]3C(=O)C=C4[C@@H]5C[C@@](C)(C(=O)O)CC[C@]5(C)CC[C@@]4(C)[C@]3(C)CC[C@H]2C1(C)C)C[C@@H]1O[C@@H](C)[C@@H](O)[C@@H](O)[C@@H]1O` (stereo partly drawn) [(3), 1-[3-O-(18-β-Glycyrrhetinic acid)]-2-(α-L-C-methylfucopyranose)-propane] the “interference with cancer cell binding to E-selectin (in words)” value [2] was “markedly lower IC50 values relative to 18-beta-glycyrrhetinic acid”, the IC50 [2] was 60 to 125 µM and the “anti-inflammatory activity (in words)” value [4] was “significant anti-inflammatory activity”.

In the case of `C[C@@H]1O[C@@H](CC(=O)CO[C@H]2CC[C@]3(C)[C@H]4C(=O)C=C5[C@@H]6C[C@@](C)(C(=O)O)CC[C@]6(C)CC[C@@]5(C)[C@]4(C)CC[C@H]3C2(C)C)[C@@H](O)[C@H](O)[C@@H]1O` [(8), 1-[3-O-(18-β-Glycyrrhetinic acid)]-2-oxo-2-(α-L-C-methylfucopyranose)-ethane], the IC50 [2] is reported as 60 to 250 µM, the “interference with P-selectin binding to HL-60 cells (in words)” value [5] is reported as “interfered with P-selectin binding to HL-60 cells in a dose dependent way” and the IC50 [5] is reported as ~750 µM. The IC50 [6] was ~125 µM and the “anti-inflammatory activity (in words)” value [4] was “activity similar to compounds (3) and (5); also recorded: significant anti-inflammatory activity”.

With `C[C@@H]1O[C@@H](CC(O)(CO)CO[C@H]2CC[C@]3(C)[C@H]4C(=O)C=C5[C@@H]6C[C@@](C)(C(=O)O)CC[C@]6(C)CC[C@@]5(C)[C@]4(C)CC[C@H]3C2(C)C)[C@@H](O)[C@H](O)[C@@H]1O` (stereo partly drawn) [Compound (5), 1-[3-O-(18-β-Glycyrrhetinic acid)]-2-(α-L-C-methylfucopyranose)-2',3'-propanediol] the “interference with cancer cell binding to E-selectin (in words)” value [2] was “markedly lower IC50 values relative to 18-beta-glycyrrhetinic acid”, the IC50 [2] was 60 to 125 µM and the “interference with P-selectin binding to HL-60 cells (in words)” value [5] was “interfered with P-selecting binding to HL-60 cells in a dose dependent manner, but was again less effective than compound (8)”. The IC50 [5] was ~2000 µM, the “inhibition of P-selectin binding to sLex (in words)” value [6] was “did inhibit P-selectin binding to sLex, it was less effective than compound (8)” and the IC50 [6] was < 1000 µM and > 500 µM. For the same compound, the inhibition at 100 µM [3] was 20%, the inhibition at 1000 µM [3] was 74% and the “inhibitory activity relative to glycyrrhizin (in words)” value ([3]; both concentrations tested) was “significantly greater inhibitory activity”. The “anti-inflammatory activity (in words)” value [4] was “significant anti-inflammatory activity”, the “percent inhibition of swelling caused by AA alone” value ([4]; topical, 10 μL of 0.80 mg/mL solution, 90 minutes) was “about 71%” and the “% Inhibition of Swelling” value ([4]; topical, arachidonic acid ear model, 800 μg applied) was 71.3%.

In the case of `CC1(C)[C@@H](O)CC[C@]2(C)[C@H]3C(=O)C=C4[C@@H]5C[C@@](C)(C(=O)O)CC[C@]5(C)CC[C@@]4(C)[C@]3(C)CC[C@@H]12` [Glycyrrhetinic acid], the “inhibition of enzymes involved in leukotriene biosynthesis, including 5-lipoxygenase (in words)” value [7] is listed as “shown to inhibit enzymes involved in leukotriene biosynthesis, including 5-lipoxygenase activity”.

With `CC1(C)[C@@H](O[C@H]2O[C@H](C(=O)O)[C@@H](O)[C@H](O)[C@H]2O[C@@H]2O[C@H](C(=O)O)[C@@H](O)[C@H](O)[C@H]2O)CC[C@]2(C)[C@H]3C(=O)C=C4[C@@H]5C[C@@](C)(C(=O)O)CC[C@]5(C)CC[C@@]4(C)[C@]3(C)CC[C@@H]12` [Glycyrrhizin] the inhibition at 100 µM [3] was 9% and the inhibition at 1000 µM [3] was 31%.
